These results are taken from ChEMBL document CHEMBL1201862, “PubChem BioAssay data set” (2004).

Test systems include ACHN; EKVX; HCC 2998; Hs-578T; LOX IMVI; MCF7; MDA-MB-435; MDA-N; Malme-3M; OVCAR-3; OVCAR-5; OVCAR-8; PC-3; SF-268; SF-295; SR; SW-620; TK-10; UO-31; HOP-92.
Common to all, as to assay: NCI tumour cell line growth inhibition, 48 h

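Briefly, cells in 96-well plates were exposed to five compound concentrations for 48 h, and endpoints were estimated by linear interpolation. GI50: concentration for 50% inhibition of growth.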 Calls of active or inactive are those of the source. Rule as the data show it: active = GI50 up to about 1.1 µM and inactive = higher.

As for `CC(=O)Nc1ccccc1C=C1c2ccccc2-c2ccccc21`, the GI50 with ACHN was 42.7 µM (inactive); in the experiment with EKVX it was 38.8 µM (inactive); with HCC 2998, 84.9 µM (inactive); in the experiment with Hs-578T, > 100 µM (inactive); in the experiment with LOX IMVI it was > 100 µM (inactive); in the experiment on MCF7 it was 20.9 µM (inactive). The GI50 was > 100 µM (inactive) in the experiment on MDA-MB-435; > 100 µM (inactive) with MDA-N; > 100 µM (inactive) in the experiment on Malme-3M; 25.1 µM (inactive) in the experiment on OVCAR-3; 35.9 µM (inactive) in the experiment on OVCAR-5; 21.7 µM (inactive) with OVCAR-8. The GI50 with PC-3 is 41.8 µM (inactive); with SF-268, > 100 µM (inactive); with SF-295, 20.9 µM (inactive); with SR, 98.9 µM (inactive); in the experiment on SW-620, > 100 µM (inactive); in the experiment with TK-10 it was 31.3 µM (inactive). Besides, in the experiment with UO-31, the GI50 was 16.2 µM (inactive).

With `COC(=O)/C=C/[C@@H]1[C@H](C)N1S(=O)(=O)c1ccc(C)cc1` (stereo partly specified), the GI50 with ACHN is > 100 µM (inactive); with EKVX it was > 100 µM (inactive); in the experiment with HCC 2998, > 100 µM (inactive); with Hs-578T, > 100 µM (inactive); in the experiment on LOX IMVI, 56.4 µM (inactive); in the experiment with MCF7, > 100 µM (inactive). For the same compound, the GI50 in the experiment on MDA-MB-435, in the experiment on MDA-N, with Malme-3M, in the experiment with OVCAR-3, in the experiment with OVCAR-5 and in the experiment with OVCAR-8 was > 100 µM (inactive) throughout. Besides, the GI50 with PC-3, in the experiment with SF-268, in the experiment on SF-295, in the experiment with SR, in the experiment on SW-620 and with TK-10 was > 100 µM (inactive) each time.

Turning to `CCOC(=O)CC(=O)Nc1c(C(=O)OCC)sc2nc(SC)nc(Nc3ccc(OC)c(OC)c3)c12`, the GI50 is 19.8 µM (inactive) with ACHN; > 100 µM (inactive) in the experiment on EKVX; > 100 µM (inactive) with HCC 2998; 9.25 µM (inactive) in the experiment on HOP-92; 7.73 µM (inactive) with Hs-578T; 39.4 µM (inactive) in the experiment with LOX IMVI. The GI50 in the experiment with MCF7 is 38.2 µM (inactive); in the experiment on MDA-MB-435 it was > 100 µM (inactive); with MDA-N, > 100 µM (inactive); in the experiment on Malme-3M, > 100 µM (inactive); in the experiment with OVCAR-3 it was 10.7 µM (inactive); with OVCAR-5 it was 52.6 µM (inactive). The GI50 in the experiment with OVCAR-8 was 34.4 µM (inactive); with PC-3, > 100 µM (inactive); with SF-268, 3.19 µM (inactive); in the experiment on SF-295, 7.59 µM (inactive); with SW-620, > 100 µM (inactive); in the experiment with TK-10 it was 17.8 µM (inactive). For the same compound, in the experiment on UO-31, the GI50 is > 100 µM (inactive).

As to `CN(C)c1ccc2oc(=O)c3ccccc3c2c1`, the GI50 in the experiment on ACHN is 24.3 µM (inactive); in the experiment with EKVX, 20.4 µM (inactive); in the experiment with HCC 2998, > 100 µM (inactive); in the experiment on HOP-92 it was 35.2 µM (inactive); in the experiment on Hs-578T, 31.7 µM (inactive); with LOX IMVI, > 100 µM (inactive). For the same compound, the GI50 with MDA-MB-435, in the experiment on MDA-N, with Malme-3M, in the experiment on OVCAR-3, in the experiment on OVCAR-5 and in the experiment with OVCAR-8 was > 100 µM (inactive) in each case. Further, the GI50 with PC-3 was > 100 µM (inactive); in the experiment on SF-268 it was 28.6 µM (inactive); with SF-295, 28.8 µM (inactive); with SR, > 100 µM (inactive); with SW-620 it was > 100 µM (inactive); in the experiment with TK-10, 39.7 µM (inactive).

For `COc1cccc(CC2C(=O)N/C(=N\C(C)=O)N2C)c1OC(C)=O` (stereo unspecified), the GI50 with ACHN is > 100 µM (inactive); in the experiment on EKVX it was 44 µM (inactive); with HCC 2998, > 100 µM (inactive); in the experiment with HOP-92 it was > 100 µM (inactive); in the experiment with Hs-578T it was > 100 µM (inactive); with LOX IMVI, > 100 µM (inactive). Also, the GI50 in the experiment on MCF7, in the experiment on MDA-MB-435, with MDA-N, in the experiment with OVCAR-3, with OVCAR-5 and in the experiment with OVCAR-8 was > 100 µM (inactive) in each case. Also, the GI50 in the experiment on PC-3, in the experiment with SF-268, in the experiment on SF-295, with SW-620, with TK-10 and in the experiment on UO-31 was > 100 µM (inactive) each time.

Regarding `O=c1[nH][nH]c(=O)n1CCCCCCn1c(=O)[nH][nH]c1=O`, the GI50 in the experiment on EKVX, in the experiment on HCC 2998, with Hs-578T, in the experiment with LOX IMVI, with MCF7 and in the experiment with MDA-MB-435 was > 100 µM (inactive) throughout. Moreover, the GI50 in the experiment with MDA-N, in the experiment on Malme-3M, in the experiment with OVCAR-3, in the experiment with OVCAR-5, in the experiment with OVCAR-8 and in the experiment on PC-3 was > 100 µM (inactive) in each case. Further, the GI50 with SF-268, in the experiment with SR, with SW-620, in the experiment on TK-10 and in the experiment with UO-31 was > 100 µM (inactive) throughout.

`Cc1c(Cl)c(C)c(Cl)c(O)c1Cl`: the GI50 in the experiment on ACHN is 22.8 µM (inactive); in the experiment with EKVX it was 26.4 µM (inactive); with HCC 2998, 19.8 µM (inactive); in the experiment with HOP-92, 19.1 µM (inactive); in the experiment with Hs-578T, 19.9 µM (inactive); in the experiment with LOX IMVI, 26.2 µM (inactive). Also, the GI50 in the experiment on MCF7 is 31.6 µM (inactive); in the experiment with MDA-MB-435 it was 18.9 µM (inactive); in the experiment on MDA-N, 24.6 µM (inactive); with Malme-3M, 15.2 µM (inactive); in the experiment with OVCAR-3, 19.5 µM (inactive); in the experiment with OVCAR-5, 35.2 µM (inactive). Further, the GI50 in the experiment on OVCAR-8 was 30.3 µM (inactive); with PC-3, 19.8 µM (inactive); with SF-268 it was 26.7 µM (inactive); in the experiment on SF-295 it was 24.8 µM (inactive); with SW-620, 34.3 µM (inactive); with TK-10, 22.1 µM (inactive). The GI50 in the experiment on UO-31 is 17.4 µM (inactive).

For `OC(COC(c1ccccc1)(c1ccccc1)c1ccccc1)C(O)CC1SCCS1` (stereo unspecified), the GI50 with ACHN was 18.6 µM (inactive); in the experiment with EKVX it was 11.2 µM (inactive); with Hs-578T, 12.2 µM (inactive); with LOX IMVI, 13.5 µM (inactive); with MCF7, 21.3 µM (inactive); in the experiment on MDA-MB-435, 26.2 µM (inactive). Further, the GI50 with MDA-N is 19 µM (inactive); in the experiment with Malme-3M, 10 µM (inactive); with OVCAR-3, 22.2 µM (inactive); with OVCAR-5 it was 19.2 µM (inactive); with OVCAR-8, 19.3 µM (inactive); with PC-3 it was 11.8 µM (inactive). Besides, the GI50 in the experiment on SF-268 is 25.4 µM (inactive); in the experiment on SR, 0.0275 µM (active); in the experiment with SW-620, 29 µM (inactive); with TK-10, 21 µM (inactive); in the experiment with UO-31, 10.9 µM (inactive).

As for `COC(=O)c1ccccc1C1=C([N+](=O)[O-])C(c2ccccc2)C(C#N)=C(N)O1` (stereo unspecified), the GI50 in the experiment with ACHN is 54.7 µM (inactive); with EKVX, 10.5 µM (inactive); with HCC 2998 it was > 100 µM (inactive); with HOP-92 it was 50.1 µM (inactive); in the experiment on Hs-578T, 18.1 µM (inactive); in the experiment on LOX IMVI, > 100 µM (inactive). The GI50 is 72.8 µM (inactive) with MDA-MB-435; > 100 µM (inactive) in the experiment with MDA-N; 24.7 µM (inactive) in the experiment with OVCAR-3; > 100 µM (inactive) in the experiment on OVCAR-5; 32.1 µM (inactive) in the experiment with OVCAR-8; > 100 µM (inactive) in the experiment on PC-3. For the same compound, the GI50 with SF-268 was 31.8 µM (inactive); in the experiment with SF-295 it was > 100 µM (inactive); with SR, 36.3 µM (inactive); in the experiment on SW-620, 35.9 µM (inactive); with TK-10, > 100 µM (inactive).

As for `CC1(C)[C@@H](Cn2ccc(=O)[nH]c2=O)CC[C@@]1(C)CO`, the GI50 with ACHN, in the experiment with EKVX, with HCC 2998, with HOP-92, in the experiment on Hs-578T and in the experiment on LOX IMVI was > 100 µM (inactive) throughout. The GI50 in the experiment on MDA-MB-435 was > 100 µM (inactive); in the experiment on MDA-N, > 100 µM (inactive); in the experiment with OVCAR-3, 81.5 µM (inactive); with OVCAR-5 it was > 100 µM (inactive); in the experiment with PC-3 it was > 100 µM (inactive); with SF-268, > 100 µM (inactive). The GI50 with SF-295, with SW-620, with TK-10 and in the experiment on UO-31 was > 100 µM (inactive) each time.

`Oc1cc(-c2ccccc2)nc2ncccc12`: the GI50 with ACHN was 0.446 µM (active); with EKVX, > 100 µM (inactive); in the experiment on HCC 2998, 0.232 µM (active); with HOP-92, 0.127 µM (active); in the experiment on Hs-578T, 0.16 µM (active); in the experiment on LOX IMVI, 0.0552 µM (active). In addition, the GI50 with MCF7 was 0.0372 µM (active); in the experiment with MDA-MB-435, 0.0133 µM (active); in the experiment with MDA-N, 0.0129 µM (active); in the experiment with Malme-3M, 0.091 µM (active); with OVCAR-3, 0.145 µM (active); in the experiment with OVCAR-8 it was 0.22 µM (active). The GI50 was 0.0681 µM (active) with PC-3; 1.93 µM (inactive) with SF-268; 0.0698 µM (active) with SF-295; 0.0438 µM (active) in the experiment with SW-620; 0.206 µM (active) in the experiment on TK-10; 0.272 µM (active) with UO-31.
